In data set [1] the target is T1, caspase 9 (Homo sapiens, UniProt P55211).
T1 construct: purchased Reaction Biology Corporation
T1 sequence (P55211 1-315 limits assumed): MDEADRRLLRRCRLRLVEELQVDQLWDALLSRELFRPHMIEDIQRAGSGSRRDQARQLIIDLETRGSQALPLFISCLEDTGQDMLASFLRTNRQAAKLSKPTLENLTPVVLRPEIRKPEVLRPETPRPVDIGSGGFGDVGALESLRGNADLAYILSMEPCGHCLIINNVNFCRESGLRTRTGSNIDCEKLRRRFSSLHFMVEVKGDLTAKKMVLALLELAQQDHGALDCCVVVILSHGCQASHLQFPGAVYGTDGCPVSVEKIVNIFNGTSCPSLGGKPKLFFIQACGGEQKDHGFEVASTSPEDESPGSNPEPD
T1 sequence (P55211 331-416 limits assumed): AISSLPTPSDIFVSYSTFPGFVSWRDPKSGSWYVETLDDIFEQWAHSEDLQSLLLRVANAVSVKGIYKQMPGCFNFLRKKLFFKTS
Nature of the data set: commercial panel of caspases (Reaction Biology Corporation), caspase 9. The data set is classed as biochemical. The note with it: read-out: IC50 versus caspase 9. From the text: (§1) Having established that the compounds (3), (4) and (16) are potent inhibitors of caspase 1, the selectivity of these agents was examined. […] Wannamaker, W.; Davies, R.; Namchuk, M.; Pollard, J.; Ford, P.; Ku, G.; Decker, C.; Charifson, P.; Weber, P.; Germann, U. A.; Kuida, K.; Randle, J. C. R. J. Pharmacol. Exp. Ther. 2007, 321, 509-516. […] VRT-043198 (2b), NCGC00185682 (3), NCGC00183434 (4) and NCGC00183681 (16) were entered within a commercial panel of caspases offered by Reaction Biology Corporation. […] A particularly interesting aspect of these molecules was the high selectivity for caspase 1. […] All other activities were about the 1 μM threshold.

For data set [2], the target named is T2, caspase 4 (Homo sapiens, UniProt P49662).
T2 construct: purchased Reaction Biology Corporation
T2 sequence (P49662 81-270 limits assumed): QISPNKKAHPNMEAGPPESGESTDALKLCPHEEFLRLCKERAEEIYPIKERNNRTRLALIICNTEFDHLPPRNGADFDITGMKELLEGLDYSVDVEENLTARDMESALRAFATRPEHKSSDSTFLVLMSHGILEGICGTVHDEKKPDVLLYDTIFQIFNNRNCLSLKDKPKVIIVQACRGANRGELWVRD
T2 sequence (P49662 290-377 limits assumed): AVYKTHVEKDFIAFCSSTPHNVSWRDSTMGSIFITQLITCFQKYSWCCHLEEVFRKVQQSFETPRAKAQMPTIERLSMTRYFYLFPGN
The note with it: reported by Randle and coworkers (Wannamaker et al. 2007); read-out: Ki versus caspase 4; cited from earlier work.

Data set [3] is described as follows: microsomal stability (both human and rat). The data set is classed as in vitro ADME. The conditions noted are these: liver microsomes, species not given. The procedure:
Given the aqueous stability of these new agents, selected ADME properties for chosen compounds were also examined. VX-765 (1), VRT-043198 (2b), NCGC00185682 (3), NCGC00183434 (4) and NCGC00183681 (16) were evaluated for a profile of bi-directional Caco-2 permeability, plasma protein binding (both human and rat) and microsomal stability (both human and rat) studies (FIG. 9, Table 2). […] The clearance rates (Clint) and t ½ for VRT-043198 (2b), NCGC00185682 (3), NCGC00183434 (4) and NCGC00183681 (16) were all moderate.

Data set [4] has as its target T3, caspase 1 (Homo sapiens, UniProt P29466).
T3 sequence (P29466 120-297 limits assumed): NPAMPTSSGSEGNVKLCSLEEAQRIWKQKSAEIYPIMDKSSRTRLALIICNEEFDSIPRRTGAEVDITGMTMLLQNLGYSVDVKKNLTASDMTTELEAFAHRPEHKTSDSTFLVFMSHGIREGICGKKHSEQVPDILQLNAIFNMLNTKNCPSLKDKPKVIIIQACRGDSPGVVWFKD
T3 sequence (P29466 317-404 limits assumed): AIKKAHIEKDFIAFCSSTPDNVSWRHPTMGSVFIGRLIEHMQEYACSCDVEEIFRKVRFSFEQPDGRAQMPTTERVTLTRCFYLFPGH
As to the kind of experiment: commercial panel of caspases (Reaction Biology Corporation), caspase 1. The data set is classed as biochemical. The note with it: read-out: IC50 versus caspase 1.
From the text: as §1

In data set [5] the target is T3, caspase 1. The note with it: reported by Randle and coworkers (Wannamaker et al. 2007); read-out: Ki versus caspase 1; cited from earlier work.
Data set [6] concerns the target T3, caspase 1. Nature of the data set: caspase 1 inhibition assay with caged fluorescent peptide substrate (Ac-LEHD-AMC). The data set is classed as biochemical. The note with it: 2 nM enzyme, 20 minutes at room temperature, fluorescence detection, read-out: IC50 versus caspase 1. The procedure:
Each agent's inhibitory capacity versus caspase 1 was evaluated. A well established protocol was utilized whereby caspase 1 activity is measured utilizing 2 nM enzyme in the presence and absence of compound and a caged fluorescent peptide substrate (Ac-LEHD-AMC). Wannamaker et al, Journal of Pharmacology and Experimental Therapeutics, 2007, 321, 509-516. The compounds were examined across a titration series (0.325 nM→57.5 μM) and data was recorded via fluorescence detection following an incubation period of 20 minutes at room temperature.

Consider `CC(C)(C)[C@H](NC(=O)c1ccc(N)c(Cl)c1)C(=O)N1CCC[C@H]1C(=O)N[C@H](C=O)CC(=O)O` [VRT-043198 (2b), reference compound], for which the concentration for half-maximal inhibition (IC50) in data set [1] came out at 5.07 nM; in data set [4], 0.204 nM; in data set [6], 11.5 nM. In addition, the Ki in data set [2] and in data set [5] was less than 1 nM throughout. For the same compound, the “clearance rates (Clint)” value in data set [3] is reported as “moderate”. For the same compound, the “t ½” value in data set [3] is reported as “moderate”.

(Values after patent publication US9365612B2, “Caspase inhibitors” (United States of America as represented by the Secretary, …, priority 2010, dated 2016).)
